Reference: US7138361B2, “Herbicidal heterocycles” (E. I. du Pont de Nemours and Company, priority 2000, dated 2006)

How the values were obtained:
Format in all cases: in vivo
Nightshade = assay: Test C preemergence
Sunflower = assay: Test C preemergence
[1] = test system: Surinam grass (Brachiaria decumbens); assay: Test C preemergence
In short: (§1)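 Formulation: non-phytotoxic solvent mix incl. surfactant. Pre: applied right after planting. Post: 1–4-leaf seedlings. Read: visual 0–100, day 12–14, greenhouse.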

[2] = test system: bermudagrass (Cynodon dactylon); assay: Test C preemergence
In short: as §1

[3] = test system: cocklebur (Xanthium strumarium); assay: Test C preemergence
In short: as §1

[4] = test system: common ragweed (Ambrosia elatior); assay: Test C preemergence
In short: as §1

corn (Zea mays) = assay: Test C preemergence
In short: as §1

[5] = test system: crabgrass (Digitaria sanguinalis); assay: Test C preemergence
In short: as §1

[6] = test system: giant foxtail (Setaria faberii); assay: Test C preemergence
In short: as §1

[7] = test system: goosegrass (Eleusine indica); assay: Test C preemergence
In short: as §1

[8] = test system: johnsongrass (Sorghum halepense); assay: Test C preemergence
In short: as §1

kochia (Kochia scoparia) = assay: Test C preemergence
In short: as §1

[9] = test system: lambsquarters (Chenopodium album); assay: Test C preemergence
In short: as §1

[10] = test system: morningglory (Ipomoea hederacea); assay: Test C preemergence
In short: as §1

[11] = test system: pigweed (Amaranthus retroflexus); assay: Test C preemergence
In short: as §1

soybean (Glycine max) = assay: Test C preemergence
In short: as §1

[12] = test system: velvetleaf (Abutilon theophrasti); assay: Test C preemergence
In short: as §1

[13] = test system: woolly cupgrass (Eriochloa villosa); assay: Test C preemergence
In short: as §1

[14] = test system: yellow nutsedge (Cyperus esculentus); assay: Test C preemergence
In short: as §1

[15] = test system: barnyardgrass (Echinochloa crus-galli); assay: Test C flooded paddy test
In short: (§2)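 Plants were grown to the 2-leaf stage under flooded paddy conditions and treated. They were then kept in a greenhouse for 12 to 14 days and visually rated against untreated controls on a 0–100 scale, where 0 is no effect and 100 is complete control.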

[16] = test system: duck salad (Heteranthera limosa); assay: Test C flooded paddy test
In short: as §2

[17] = test system: smallflower flatsedge (Cyperus difformis); assay: Test C flooded paddy test; conditions: for Flatsedge plant response rating: Flooded Paddy, scale 0 to 100, 0 no effect, 100 complete control; for Plant response rating, Flatsedge: flooded paddy test, scale 0 to 100 (0 no effect, 100 complete control)
In short: as §2

[18] = Rate 62 g/ha, scale 0 to 100, 0 no effect, 100 complete control
[19] = Preemergence, Rate 500 g/ha, scale 0 to 100
[20] = preemergence, Rate 250 g/ha, visual evaluation after 12 to 14 days
[21] = preemergence, Rate 125 g/ha, scale 0 to 100, 0 no effect, 100 complete control
[22] = Flooded Paddy, Rate 500 g/ha, scale 0 to 100
[23] = Flooded Paddy, Rate 1000 g/ha, scale 0 to 100
[24] = Flooded Paddy, Rate 250 g/ha, scale 0 to 100, 0 no effect, 100 complete control
[25] = flooded paddy test, Rate 62 g/ha, scale 0 to 100 (0 no effect, 100 complete control)
[26] = flooded paddy test, Rate 125 g/ha, scale 0 to 100 (0 no effect, 100 complete control)

O=C1C(n2ccc(C3CC3)n2)CCN1c1cccc(C(F)(F)F)c1 (stereo not drawn) [Compound 8]
20: Plant response rating, Foxtail, Giant [6, 21] | Plant response rating, Goosegrass [7, 21] | Plant response rating (0 to 100), Kochia (kochia (Kochia scoparia); [20]) | Plant response rating, Morningglory [10, 18] | Plant response rating, Pigweed [11, 18] | Plant response rating, Soybean (soybean (Glycine max); [19]) | Plant response rating (0 to 100), Soybean (soybean (Glycine max); [20]) | Plant response rating, Velvetleaf [12, 19] | Plant response rating (0 to 100), Velvetleaf [12, 20] | Plant response rating, Ducksalad [16, 26]
70: Plant response rating (0 to 100 where 0 is no effect and 100 is complete control), Bermudagrass [2, 20] | Plant response rating, Bermudagrass [2, 21] | Plant response rating, Crabgrass [5, 18] | Plant response rating, Crabgrass [5, 21] | Plant response rating, Kochia (kochia (Kochia scoparia); [19]) | Plant response rating, Barnyardgrass [15, 22] | Plant response rating, Ducksalad [16, 22]
60: Plant response rating, Surinam grass [1, 19]
80: Plant response rating, Ragweed, Common [4, 19] | Plant response rating, Pigweed [11, 21] | Plant response rating, Cupgrass, Woolly [13, 19]
30: Plant response rating, Sunflower (Sunflower; Rate 500 g/ha, scale 0 to 100) | Plant response rating, Morningglory [10, 19] | Plant response rating (0 to 100), Morningglory [10, 20] | Plant response rating, Morningglory [10, 21] | Plant response rating, Flatsedge ([17]; Rate 62 g/ha)
40: Plant response rating, Cupgrass, Woolly [13, 21] | Barnyardgrass plant response rating [15, 24] | Ducksalad plant response rating [16, 24]
100: Plant response rating, Bermudagrass [2, 19] | Plant response rating, Crabgrass [5, 19] | Plant response rating, Foxtail, Giant [6, 19] | Plant response rating, Goosegrass [7, 19] | Plant response rating, Lambsquarters [9, 19] | Plant response rating, Lambsquarters [9, 18] | Plant response rating (0 to 100), Lambsquarters [9, 20] | Plant response rating, Lambsquarters [9, 21] | Plant response rating, Pigweed [11, 19] | Plant response rating (0 to 100), Pigweed [11, 20] | Plant response rating, Barnyardgrass [15, 23] | Plant response rating, Ducksalad [16, 23] | Flatsedge plant response rating ([17]; Rate 250 g/ha) | Flatsedge plant response rating ([17]; Rate 500 g/ha) | Flatsedge plant response rating ([17]; rate of this column group stands in head line r653, not shown (group before Rate 500 g/ha))
90: Plant response rating (0 to 100), Crabgrass [5, 20] | Plant response rating (0 to 100), Foxtail, Giant [6, 20] | Plant response rating (0 to 100), Goosegrass [7, 20] | Plant response rating, Flatsedge ([17]; Rate 125 g/ha)
0: Plant response rating, Nightshade (Nightshade; [18]) | Plant response rating, Nightshade (Nightshade; Rate 125 g/ha, scale 0 to 100, 0 no effect, 100 complete control) | Plant response rating, Nightshade (Nightshade; Rate 500 g/ha, scale 0 to 100) | Plant response rating, Sunflower (Sunflower; [18]) | Plant response rating, Surinam grass [1, 18] | Plant response rating, Surinam grass [1, 21] | Plant response rating, Bermudagrass [2, 18] | Plant response rating, Cocklebur [3, 19] | Plant response rating, Cocklebur [3, 18] | Plant response rating (0 to 100), Cocklebur [3, 20] | Plant response rating, Cocklebur [3, 21] | Plant response rating, Ragweed, Common [4, 18] | Plant response rating, Ragweed, Common [4, 21] | Plant response rating, Corn (corn (Zea mays); [19]) | Plant response rating, Corn (corn (Zea mays); [18]) | Plant response rating (0 to 100), Corn (corn (Zea mays); [20]) | Plant response rating, Corn (corn (Zea mays); [21]) | Plant response rating, Foxtail, Giant [6, 18] | Plant response rating, Goosegrass [7, 18] | Plant response rating, Johnsongrass [8, 19] | Plant response rating, Johnsongrass [8, 18] | Plant response rating (0 to 100), Johnsongrass [8, 20] | Plant response rating, Johnsongrass [8, 21] | Plant response rating, Kochia (kochia (Kochia scoparia); [18]) | Plant response rating, Kochia (kochia (Kochia scoparia); [21]) | Plant response rating, Soybean (soybean (Glycine max); [18]) | Plant response rating, Soybean (soybean (Glycine max); [21]) | Plant response rating, Velvetleaf [12, 18] | Plant response rating, Velvetleaf [12, 21] | Plant response rating, Cupgrass, Woolly [13, 18] | Plant response rating, Nutsedge [14, 19] | Plant response rating, Nutsedge [14, 18] | Plant response rating (0 to 100), Nutsedge [14, 20] | Plant response rating, Nutsedge [14, 21] | Plant response rating, Barnyardgrass [15, 25] | Plant response rating, Barnyardgrass [15, 26] | Plant response rating, Ducksalad [16, 25]
50: Plant response rating (0 to 100), Surinam grass [1, 20] | Plant response rating (0 to 100), Cupgrass, Woolly [13, 20]
